Data as given in ChEMBL document CHEMBL3864140, “Melanogenesis inhibitory activity of a 7-O-9'-linked neolignan from Alpinia galanga fruit” (Bioorg Med Chem, 2016).
pIC50: −log10 of the molar value.

How the values were obtained:
[1] = Downregulation of TRP2 expression in theophylline-stimulated mouse B16-4A5 cells assessed as ratio of TRP2 mRNA expression to beta-actin mRNA expression at 10 uM after 72 hrs by qRT-PCR analysis (reference value: […] +/- […]); type: functional, cell-based
[2] = Downregulation of tyrosinase expression in theophylline-stimulated mouse B16-4A5 cells assessed as ratio of tyrosinase mRNA expression to beta-actin mRNA expression at 3 uM after 72 hrs by qRT-PCR analysis (reference value: […] +/- […]); type: functional, cell-based
[3] = Antimelanogenic activity in theophylline-stimulated mouse B16-4A5 cells assessed as inhibition of melanogenesis at 0.3 uM after 72 hrs relative to control; type: functional; conditions: B16-4A5, 72 h
[4] = Downregulation of tyrosinase expression in theophylline-stimulated mouse B16-4A5 cells assessed as ratio of tyrosinase mRNA expression to beta-actin mRNA expression at 10 uM after 72 hrs by qRT-PCR analysis (reference value: […] +/- […]); type: functional, cell-based
[5] = Cytotoxicity against theophylline-stimulated mouse B16-4A5 cells assessed as cell viability at 10 uM after 72 hrs by MTT assay relative to control; type: toxicity; conditions: theophylline-stimulated B16-4A5 cells, read-out: Activity
[6] = Antimelanogenic activity in theophylline-stimulated mouse B16-4A5 cells assessed as inhibition of melanogenesis at 10 uM after 72 hrs relative to control; type: functional; conditions: B16-4A5, 72 h
[7] = Antimelanogenic activity in theophylline-stimulated mouse B16-4A5 cells assessed as inhibition of melanogenesis at 1 uM after 72 hrs relative to control; type: functional; conditions: B16-4A5, 72 h
[8] = Downregulation of TRP2 expression in theophylline-stimulated mouse B16-4A5 cells assessed as ratio of TRP2 mRNA expression to beta-actin mRNA expression at 3 uM after 72 hrs by qRT-PCR analysis (reference value: […] +/- […]); type: functional, cell-based
[9] = Cytotoxicity against theophylline-stimulated mouse B16-4A5 cells assessed as cell viability at 3 uM after 72 hrs by MTT assay relative to control; type: toxicity; conditions: theophylline-stimulated B16-4A5 cells, read-out: Activity
[10] = Antimelanogenic activity in theophylline-stimulated mouse B16-4A5 cells assessed as inhibition of melanogenesis at 3 uM after 72 hrs relative to control; type: functional; conditions: B16-4A5, 72 h
[11] = Cytotoxicity against theophylline-stimulated mouse B16-4A5 cells assessed as cell viability at 1 uM after 72 hrs by MTT assay relative to control; type: toxicity; conditions: theophylline-stimulated B16-4A5 cells, read-out: Activity
[12] = Downregulation of TRP1 expression in theophylline-stimulated mouse B16-4A5 cells assessed as ratio of TRP1 mRNA expression to beta-actin mRNA expression at 10 uM after 72 hrs by qRT-PCR analysis (reference value: […] +/- […]); type: functional, cell-based
[13] = Cytotoxicity against theophylline-stimulated mouse B16-4A5 cells assessed as cell viability at 0.3 uM after 72 hrs by MTT assay relative to control; type: toxicity; conditions: theophylline-stimulated B16-4A5 cells, read-out: Activity
[14] = Downregulation of TRP1 expression in theophylline-stimulated mouse B16-4A5 cells assessed as ratio of TRP1 mRNA expression to beta-actin mRNA expression at 3 uM after 72 hrs by qRT-PCR analysis (reference value: […] +/- […]); type: functional, cell-based
[15] = Antimelanogenic activity in theophylline-stimulated mouse B16-4A5 cells assessed as inhibition of melanogenesis after 72 hrs relative to control; type: functional, cell-based
[16] = Potency index, ratio of arbutin IC50 to compound IC50 for antimelanogenic activity in mouse B16-4A5 cells; type: functional
[17] = Cytotoxicity against theophylline-stimulated mouse B16-4A5 cells assessed as cell viability at 30 uM after 72 hrs by MTT assay relative to control; type: toxicity; conditions: theophylline-stimulated B16-4A5 cells, read-out: Activity
[18] = Cytotoxicity against theophylline-stimulated mouse B16-4A5 cells assessed as cell viability at 300 uM after 72 hrs by MTT assay relative to control; type: toxicity; conditions: theophylline-stimulated B16-4A5 cells, read-out: Activity
[19] = Antimelanogenic activity in theophylline-stimulated mouse B16-4A5 cells assessed as inhibition of melanogenesis at 1000 uM after 72 hrs relative to control; type: functional; conditions: B16-4A5, 72 h
cells [20] = conditions: Mus musculus, B16-4A5, 72 h, read-out: INH
[21] = Antimelanogenic activity in theophylline-stimulated mouse B16-4A5 cells assessed as inhibition of melanogenesis at 300 uM after 72 hrs relative to control; type: functional; conditions: B16-4A5, 72 h
[22] = Cytotoxicity against theophylline-stimulated mouse B16-4A5 cells assessed as cell viability at 100 uM after 72 hrs by MTT assay relative to control; type: toxicity; conditions: theophylline-stimulated B16-4A5 cells, read-out: Activity
[23] = Cytotoxicity against theophylline-stimulated mouse B16-4A5 cells assessed as cell viability at 1000 uM after 72 hrs by MTT assay relative to control; type: toxicity; conditions: theophylline-stimulated B16-4A5 cells, read-out: Activity
cells [24] = conditions: Mus musculus, B16-4A5, 72 h, read-out: INH; remark: listed apart in the source
Description: Antimelanogenic activity in theophylline-stimulated mouse B16-4A5 cells assessed as inhibition of melanogenesis at 30 uM after 72 hrs relative to control

Molecule `C=CC(OC/C=C/c1ccc(OC(C)=O)cc1)c1ccc(OC(C)=O)cc1` (racemic) has a Ratio [1] of 0.81, a Ratio [2] of 0.77 and an inhibition at 0.3 µM [3] of 10.3%. For the same molecule, the Ratio [4] was 0.6, the viability at 72 h, 10 µM [5] was 12.9% and the inhibition at 10 µM [6] was -5.5%. For the same molecule, the inhibition at 1 µM [7] was 32.4%, the Ratio [8] was 0.86 and the viability at 72 h, 3 µM [9] was 85.2%. The inhibition at 3 µM [10] was 57.2%, the viability at 72 h, 1 µM [11] was 99.3% and the Ratio [12] was 0.81. The viability at 72 h, 0.3 µM [13] was 105%, the Ratio [14] was 0.79 and the pIC50 [15] was 5.66.

Work on `C=C[C@@H](OC/C=C/c1ccc(OC(C)=O)cc1)c1ccc(OC(C)=O)cc1` yielded a Ratio [1] of 0.88, a Ratio [2] of 0.84 and an inhibition at 0.3 µM [3] of 10.8%. For the same molecule, the Ratio [4] was 0.56, the viability at 72 h, 10 µM [5] was 29.7% and the inhibition at 10 µM [6] was 137%. For the same molecule, the inhibition at 1 µM [7] was 31.8%, the Ratio [8] was 1.67 and the viability at 72 h, 3 µM [9] was 81.5%. The inhibition at 3 µM [10] was 71.4%, the viability at 72 h, 1 µM [11] was 102% and the Ratio [12] was 0.94. For the same molecule, the viability at 72 h, 0.3 µM [13] was 107%, the Ratio [14] was 0.92 and the pIC50 [15] was 5.72.

`C=C[C@H](OC/C=C/c1ccc(OC(C)=O)cc1)c1ccc(OC(C)=O)cc1` showed a Ratio [1] of 1.43, a Ratio [2] of 0.87 and an inhibition at 0.3 µM [3] of -5.9%. It also gave a Ratio [4] of 0.53, a viability at 72 h, 10 µM [5] of 26.5% and an inhibition at 10 µM [6] of 117%. The inhibition at 1 µM [7] was 10%, the Ratio [8] was 0.72 and the viability at 72 h, 3 µM [9] was 68.5%. The inhibition at 3 µM [10] was 58.5%, the viability at 72 h, 1 µM [11] was 82.9% and the Ratio [12] was 0.99. For the same molecule, the viability at 72 h, 0.3 µM [13] was 98.1%, the “Ratio IC50” value [16] was >25 - 70 and the Ratio [14] was 0.76. It also gave a pIC50 [15] of 5.60.

With `C=C[C@H](OC(C)=O)c1ccc(OC(C)=O)cc1` [1'-ACETOXYCHAVICOL ACETATE] the Ratio [1] was 0.34, the Ratio [2] was 1 and the inhibition at 0.3 µM [3] was 9.3%. It also gave a Ratio [4] of 0.49, a viability at 72 h, 10 µM [5] of 99.9% and an inhibition at 10 µM [6] of 73.1%. The inhibition at 1 µM [7] was 6.2%, the Ratio [8] was 1.08 and the viability at 72 h, 3 µM [9] was 99.9%. For the same molecule, the inhibition at 3 µM [10] was 29.8%, the viability at 72 h, 1 µM [11] was 102% and the Ratio [12] was 0.5. The viability at 72 h, 0.3 µM [13] was 103%, the “Ratio IC50” value [16] was >25 - 70 and the Ratio [14] was 0.86. For the same molecule, the pIC50 [15] was 5.30.

`OC[C@H]1O[C@@H](Oc2ccc(O)cc2)[C@H](O)[C@@H](O)[C@@H]1O` [ARBUTIN] showed a viability at 72 h, 30 µM [17] of 82.4%, a viability at 72 h, 300 µM [18] of 79.8% and an inhibition at 1000 µM [19] of 83.7%. For the same molecule, the inhibition at 100 µM (cells [20]) was 38.1%, the inhibition at 300 µM [21] was 61.5% and the viability at 72 h, 100 µM [22] was 78.1%. For the same molecule, the viability at 72 h, 1000 µM [23] was 53.1% and the inhibition at 30 µM (cells [24]) was 20.4%.

Work on `C=C[C@H](OC(C)=O)c1ccc(OC(C)=O)c(OC)c1` yielded a Ratio [1] of 0.88, a Ratio [2] of 1.1 and an inhibition at 0.3 µM [3] of -4.9%. The Ratio [4] was 0.8, the viability at 72 h, 10 µM [5] was 42.3% and the inhibition at 10 µM [6] was 84.4%. It also gave an inhibition at 1 µM [7] of 15.3%, a Ratio [8] of 0.89 and a viability at 72 h, 3 µM [9] of 101%. For the same molecule, the inhibition at 3 µM [10] was 16.8%, the viability at 72 h, 1 µM [11] was 105% and the Ratio [12] was 0.29. For the same molecule, the viability at 72 h, 0.3 µM [13] was 92%, the “Ratio IC50” value [16] was >25 - 70 and the Ratio [14] was 0.52. It also gave a pIC50 [15] of 5.25.
